Data: patent US8916593B2, “Alkoxy-substituted 2-aminopyridines as ALK inhibitors” (Pfizer Inc., priority 2010, dated 2014)

Key:
[1] = biological target: T1, human recombinant wild-type ALK kinase domain (amino acids 1093-1411) (Homo sapiens, UniProt Q9UM73); experiment: ALK enzyme assay 2 (microfluidic mobility shift assay); assay type: biochemical;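 further: kinase reaction run 1 h at room temperature, conversion quantified by electrophoretic separation of fluorescent peptide substrate from phosphorylated product, about 15-20% turnover without inhibitor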
T1 construct: ALK kinase domain (amino acids 1093-1411); made in house
T1 sequence (Q9UM73 1093-1411): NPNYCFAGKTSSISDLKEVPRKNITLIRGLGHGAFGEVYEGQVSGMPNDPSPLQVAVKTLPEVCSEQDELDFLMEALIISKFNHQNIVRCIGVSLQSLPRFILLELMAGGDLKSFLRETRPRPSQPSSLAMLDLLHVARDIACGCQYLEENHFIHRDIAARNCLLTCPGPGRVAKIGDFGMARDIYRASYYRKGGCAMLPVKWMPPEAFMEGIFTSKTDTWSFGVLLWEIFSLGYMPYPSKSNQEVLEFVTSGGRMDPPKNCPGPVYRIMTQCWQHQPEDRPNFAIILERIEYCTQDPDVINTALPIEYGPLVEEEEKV
Experimental: The reactions were incubated for 1 h at room temperature, stopped by the addition of 0.1 M EDTA, pH 8, and the extent of reactions (˜15-20% conversion with no inhibitor) was determined after electrophoretic separation of the fluorescently labeled peptide substrate and phosphorylated product on an LabChip EZ Reader II (Caliper Life Sciences, Hopkinton, Mass.).

[2] = biological target: EML4-ALK wt v1 in NIH-3T3 cells (Homo sapiens, UniProt Q9UM73)
EML4-ALK wt v1 in NIH-3T3 cells, sequence (Q9UM73 with tags, fused parts or gaps): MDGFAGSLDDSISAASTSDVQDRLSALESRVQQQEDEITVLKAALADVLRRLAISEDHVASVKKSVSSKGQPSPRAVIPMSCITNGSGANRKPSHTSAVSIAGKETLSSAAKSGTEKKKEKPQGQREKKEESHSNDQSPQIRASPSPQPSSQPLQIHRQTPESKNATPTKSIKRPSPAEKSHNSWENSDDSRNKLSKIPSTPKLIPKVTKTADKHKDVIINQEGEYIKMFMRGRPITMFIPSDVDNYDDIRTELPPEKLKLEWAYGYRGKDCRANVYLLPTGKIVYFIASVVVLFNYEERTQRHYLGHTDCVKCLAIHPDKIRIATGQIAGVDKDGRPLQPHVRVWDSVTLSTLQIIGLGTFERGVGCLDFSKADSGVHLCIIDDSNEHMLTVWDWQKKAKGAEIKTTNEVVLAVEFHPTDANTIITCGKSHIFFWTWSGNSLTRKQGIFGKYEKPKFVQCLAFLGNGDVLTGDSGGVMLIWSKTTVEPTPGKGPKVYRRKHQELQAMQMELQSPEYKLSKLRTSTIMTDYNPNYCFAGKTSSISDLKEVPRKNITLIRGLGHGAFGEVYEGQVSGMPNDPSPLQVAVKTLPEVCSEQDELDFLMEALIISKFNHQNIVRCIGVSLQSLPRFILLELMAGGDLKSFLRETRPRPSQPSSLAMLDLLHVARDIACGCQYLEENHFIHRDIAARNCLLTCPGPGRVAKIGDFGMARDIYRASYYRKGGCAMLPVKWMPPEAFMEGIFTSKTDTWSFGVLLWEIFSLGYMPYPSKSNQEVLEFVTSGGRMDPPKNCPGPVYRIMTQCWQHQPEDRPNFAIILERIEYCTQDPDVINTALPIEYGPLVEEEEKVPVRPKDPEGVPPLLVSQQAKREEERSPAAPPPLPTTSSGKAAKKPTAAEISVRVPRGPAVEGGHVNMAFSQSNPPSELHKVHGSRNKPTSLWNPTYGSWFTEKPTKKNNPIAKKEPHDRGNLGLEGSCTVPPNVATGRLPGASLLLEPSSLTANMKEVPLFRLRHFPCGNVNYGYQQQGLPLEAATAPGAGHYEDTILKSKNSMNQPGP

Ki [1] | IC50 [2] | SMILES
< 0.2 nM | 1.15 nM | C[C@@H](Oc1cc(-c2ccc(OC3CCNCC3)nc2)cnc1N)c1cc(F)ccc1-n1nccn1 [Example 122, 5-{(1R)-1-[5-fluoro-2-(2H-1,2,3-triazol-2-yl)phenyl]ethoxy}-6′-(piperidin-4-yloxy)-3,3′-bipyridin-6-amine]
< 0.2 nM | 17.1 nM | Cc1nc(C(C)O)sc1-c1cnc(N)c(O[C@H](C)c2cc(F)ccc2-n2nccn2)c1 (stereo partly drawn) [Example 96, 1-[5-(6-amino-5-{(1R)-1-[5-fluoro-2-(2H-1,2,3-triazol-2-yl)phenyl]ethoxy}pyridin-3-yl)-4-methyl-1,3-thiazol-2-yl]ethanol]
< 0.193 nM | 12.1 nM | Cc1n[nH]c(C)c1-c1cnc(N)c(O[C@H](C)c2cc(F)ccc2-n2nccn2)c1 [Example 126, 5-(3,5-Dimethyl-1H-pyrazol-4-yl)-3-{(1R)-1-[5-fluoro-2-(2H-1,2,3-triazol-2-yl)phenyl]ethoxy}pyridin-2-amine]
0.2 nM | 15.3 nM | CC(O)Cn1cc(-c2cnc(N)c(O[C@H](C)c3cc(F)ccc3-n3nccn3)c2)cn1 (stereo partly drawn) [Example 77, 1-[4-(6-amino-5-{(1R)-1-[5-fluoro-2-(2H-1,2,3-triazol-2-yl)phenyl]ethoxy}pyridin-3-yl)-1H-pyrazol-1-yl]propan-2-ol]
5.1 nM | 193 nM | Cc1n[nH]cc1-c1cnc(N)c(OC(C)c2cc(F)ccc2N2CCCC2=O)n1 (stereo not shown) [Example 65, 1-[2-(1-{[3-amino-6-(3-methyl-1H-pyrazol-4-yl)pyrazin-2-yl]oxy}ethyl)-4-fluorophenyl]pyrroli-din-2-one]
4.1 nM | 166 nM | C[C@@H](Oc1cc(-c2csc(CO)n2)cnc1N)c1cc(F)ccc1-n1nccn1 [Example 105, [4-(6-amino-5-{(1R)-1-[5-fluoro-2-(2H-1,2,3-triazol-2-yl)phenyl]ethoxy}pyridin-3-yl)-1,3-thiazol-2-yl]methanol]
< 0.2 nM | 2.54 nM | Cc1nn([C@H]2CCS(=O)(=O)C2)c(C)c1-c1cnc(N)c(O[C@H](C)c2cc(F)ccc2-n2nccn2)c1 [Example 127, 5-{1-[(3S)-1,1-dioxidotetrahydrothiophen-3-yl]-3,5-dimethyl-1H-pyrazol-4-yl}-3-{(1R)-1-[5-fluoro-2-(2H-1,2,3-triazol-2-yl)phenyl]ethoxy}pyridin-2-amine]
0.24 nM | 10.4 nM | C[C@@H](Oc1nc(-c2cccc(S(C)(=O)=O)c2)cnc1N)c1cc(F)ccc1-n1nccn1 [Example 72, 3-{(1R)-1-[5-fluoro-2-(2H-1,2,3-triazol-2-yl)phenyl]ethoxy}-5-[3-(methylsulfonyl)phen-yl]pyrazin-2-amine]
67 nM | 2350 nM | CC(Oc1cc(-c2ccnn2C)cnc1N)c1cc(F)ccc1-c1nccn1C (stereo not shown) [Example 63, 3-{1-[5-Fluoro-2-(1-methyl-1H-imidazol-2-yl)-phenyl]ethoxy}-5-(2-methyl-2H-pyrazol-3-yl)-pyridin-2-ylamine]
< 0.2 nM | 4.14 nM | C[C@@H](Oc1cc(-c2cccc(CS(C)(=O)=O)c2)cnc1N)c1cc(F)ccc1-n1nccn1 [Example 87, 3-{(1R)-1-[5-fluoro-2-(2H-1,2,3-triazol-2-yl)phenyl]ethoxy}-5-{3-[(methylsulfonyl)methyl]phenyl}pyridin-2-amine]
< 0.49 nM | 22.1 nM | CC(O)c1ncc(-c2cnc(N)c(O[C@H](C)c3cc(F)ccc3-n3nccn3)c2)s1 (stereo partly drawn) [Example 94, 1-[5-(6-amino-5-{(1R)-1-[5-fluoro-2-(2H-1,2,3-triazol-2-yl)phenyl]ethoxy}pyridin-3-yl)-1,3-thiazol-2-yl]ethanol]
0.58 nM | 9.15 nM | C[C@@H](Oc1cc(-c2cnc(CS(C)(=O)=O)s2)cnc1N)c1cc(F)ccc1-n1nccn1 [Example 109, 3-{(1R)-1-[5-fluoro-2-(2H-1,2,3-triazol-2-yl)phenyl]ethoxy}-5-{2-[(methylsulfonyl)methyl]-1,3-thiazol-5-yl}pyridin-2-amine]
< 0.2 nM | 75.3 nM | CCn1cc(-c2cnc(N)c(O[C@H](C)c3cc(F)ccc3-n3nccn3)c2)ccc1=O [Example 82, 6′-amino-1-ethyl-5′-{(1R)-1-[5-fluoro-2-(2H-1,2,3-triazol-2-yl)phenyl]ethoxy}-3,3′-bipyridin-6(1H)-one]
1.1 nM | 13.2 nM | C[C@@H](Oc1cc(-c2ccc3c(c2)CCS3(=O)=O)cnc1N)c1cc(F)ccc1-n1nccn1 [Example 99, 5-(1,1-dioxido-2,3-dihydro-1-benzothiophen-5-yl)-3-{(1R)-1-[5-fluoro-2-(2H-1,2,3-triazol-2-yl)phenyl]ethoxy}pyridin-2-amine]
1.3 nM | 89.6 nM | Cc1cc(-c2cnc(N)c(O[C@H](C)c3cc(F)ccc3-n3nccn3)c2)cc(P(C)(C)=O)c1 [Example 114, 5-[3-(dimethylphosphoryl)-5-methylphenyl]-3-{(1R)-1-[5-fluoro-2-(2H-1,2,3-triazol-2-yl)phenyl]ethoxy}pyridin-2-amine]
1.21 nM | 89.3 nM | COc1ccc(F)cc1C(C)Oc1nc(-c2cc(S(C)(=O)=O)cnc2OC)cnc1N (stereo not shown) [Example 102, 3-[1-(5-fluoro-2-methoxyphenyl)ethoxy]-5-[2-methoxy-5-(methylsulfonyl)pyridin-3-yl]pyrazin-2-amine]
< 0.2 nM | 9.9 nM | C[C@@H](Oc1cc(-c2cnn(C3CCNC3)c2)cnc1N)c1cc(F)ccc1-n1nccn1 (stereo partly drawn) [Example 81, 3-{(1R)-1-[5-fluoro-2-(2H-1,2,3-triazol-2-yl)phenyl]ethoxy}-5-[1-(pyrrolidin-3-yl)-1H-pyrazol-4-yl]pyridin-2-amine]
1.04 nM | 71.3 nM | C[C@@H](Oc1cc(-c2ccc(O)nc2)cnc1N)c1cc(F)ccc1-n1nccn1 [Example 121, 6′-amino-5′-{(1R)-1-[5-fluoro-2-(2H-1,2,3-triazol-2-yl)phenyl]ethoxy}-3,3′-bipyridin-6-ol]
< 0.2 nM | 2.82 nM | Cc1nn(C2CCNC2=O)cc1-c1cnc(N)c(O[C@H](C)c2cc(F)ccc2-n2nccn2)c1 (stereo partly drawn) [Example 139, 3-[4-(6-amino-5-{(1R)-1-[5-fluoro-2-(2H-1,2,3-triazol-2-yl)phenyl]ethoxy}pyridin-3-yl)-3-methyl-1H-pyrazol-1-yl]pyrrolidin-2-one]
< 0.2 nM | 3.7 nM | Cc1c(-c2cnc(N)c(O[C@H](C)c3cc(F)ccc3-n3nccn3)c2)cnn1C1CCNCC1 [Example 125, 3-{(1R)-1-[5-fluoro-2-(2H-1,2,3-triazol-2-yl)phenyl]ethoxy}-5-[5-methyl-1-(piperidin-4-yl)-1H-pyrazol-4-yl]pyridin-2-amine]
< 0.2 nM | 13.2 nM | Cc1nn(CC#N)c(C)c1-c1cnc(N)c(O[C@H](C)c2cc(F)ccc2-n2nccn2)c1 [Example 84, [4-(6-amino-5-{(1R)-1-[5-fluoro-2-(2H-1,2,3-triazol-2-yl)phenyl]ethoxy}pyridin-3-yl)-3,5-dimethyl-1H-pyrazol-1-yl]acetonitrile]
0.638 nM | 17.6 nM | C[C@@H](Oc1cc(-c2ccnc(N3CCOCC3)c2F)cnc1N)c1cc(F)ccc1-n1nccn1 [Example 131, 3′-fluoro-5-{(1R)-1-[5-fluoro-2-(2H-1,2,3-triazol-2-yl)phenyl]ethoxy}-2′-(morpholin-4-yl)-3,4′-bipyridin-6-amine]
4.37 nM | 289 nM | Cc1nc(-c2cnc(N)c(O[C@H](C)c3cc(F)ccc3-n3nccn3)c2)sc1C(C)O (stereo partly drawn) [Example 115, 1-[2-(6-amino-5-{(1R)-1-[5-fluoro-2-(2H-1,2,3-triazol-2-yl)phenyl]ethoxy}pyridin-3-yl)-4-methyl-1,3-thiazol-5-yl]ethanol]
0.341 nM | 24.6 nM | C[C@@H](Oc1cc(-c2cnc3c(c2)C(C)(C)C(=O)N3)cnc1N)c1cc(F)ccc1-n1nccn1 [Example 75, 5-(6-amino-5-{(1R)-1-[5-fluoro-2-(2H-1,2,3-triazol-2-yl)phenyl]ethoxy}pyridin-3-yl)-3,3-dimethyl-1,3-dihydro-2H-pyrrolo[2,3-b]pyridin-2-one]
0.26 nM | 8.6 nM | COc1ccc(F)cc1C(C)Oc1cc(-c2ccc(CO)c(S(C)(=O)=O)c2)cnc1N (stereo not shown) [Example 136, [4-{6-amino-5-[1-(5-fluoro-2-methoxyphenyl)ethoxy]pyridin-3-yl}-2-(methylsulfonyl)phenyl]methanol]
0.327 nM | 41.3 nM | C[C@@H](Oc1cc(-c2cnc(CO)n2C)cnc1N)c1cc(F)ccc1-n1nccn1 [Example 97, [5-(6-amino-5-{(1R)-1-[5-fluoro-2-(2H-1,2,3-triazol-2-yl)phenyl]ethoxy}pyridin-3-yl)-1-methyl-1H-imidazol-2-yl]methanol]
< 0.2 nM | 2.04 nM | Cc1nn(C2CCNCC2)cc1-c1cnc(N)c(O[C@H](C)c2cc(F)ccc2-n2nccn2)c1 [Example 124, 3-{(1R)-1-[5-fluoro-2-(2H-1,2,3-triazol-2-yl)phenyl]ethoxy}-5-[3-methyl-1-(piperidin-4-yl)-1H-pyrazol-4-yl]pyridin-2-amine]
0.26 nM | 2.25 nM | C[C@@H](Oc1cc(-c2ccnc(N3CC(O)C3)c2F)cnc1N)c1cc(F)ccc1-n1nccn1 [Example 130, 1-(6-amino-3′-fluoro-5-{(1R)-1-[5-fluoro-2-(2H-1,2,3-triazol-2-yl)phenyl]ethoxy}-3,4′-bipyridin-2′-yl)azetidin-3-ol]
– | 4.15 nM | COCc1ccc(-c2cnc(N)c(OC(C)c3cc(F)ccc3OC)c2)cc1S(C)(=O)=O (stereo not shown) [Example 135, 3-[1-(5-fluoro-2-methoxyphenyl)ethoxy]-5-[4-(methoxymethyl)-3-(methylsulfonyl)phenyl]pyridin-2-amine]
1.56 nM | – | Cc1n[nH]c(C)c1-c1cnc(N)c(O[C@H](C)c2cc(F)ccc2F)c1 [Example 48, 3-[(1R)-(2,5-difluorophenyl)-ethoxy]-5-(3,5-dimethyl-1H-pyrazol-4-yl)pyridin-2-amine]
